The values that follow come from ChEMBL document CHEMBL1201862, “PubChem BioAssay data set” (2004).

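Grown in 96-well plates, cells were treated for 48 hours with each compound at five concentrations. Insufficient inhibition: endpoint recorded as highest concentration tested. GI50 marks 50% less growth.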 Active and inactive are the calls of the source. Cut-off read from the data, not from the text of the source: active = GI50 up to about 1.1 µM and inactive = higher.

Common to all, as to assay: NCI anticancer screen, dose series, 48 h
For assay [1], the system named is 786-0.
In assay [2] the test system is A498.
Assay [3] concerns A549.
The subject of assay [4] is BT-549.
For assay [5], the system named is COLO 205.
In assay [6] the test system is DU-145.
The test system of assay [7] is HOP-92.
Assay [8] deals with IGROV-1.
The subject of assay [9] is MDA-N.
Assay [10] has as its system MOLT-4.
In assay [11] the test system is NCI/ADR-RES.
The test system of assay [12] is OVCAR-4.
In assay [13] the test system is PC-3.
Assay [14] has as its system RPMI-8226.
The subject of assay [15] is SF-539.
The test system of assay [16] is SK-MEL-28.
The test system of assay [17] is SK-OV-3.
Assay [18] deals with SNB-19.
For assay [19], the system named is UO-31.
In assay [20] the test system is HL-60.

Turning to `O=C(O)CCCCn1cnc2c(S)ncnc21`, the GI50 in assay [1], in [2], in assay [3], in assay [4], in assay [5] and in assay [6] was > 100 µM (inactive) throughout. The GI50 in [7], in assay [8], in assay [9], in assay [10], in assay [11] and in assay [12] was > 100 µM (inactive) throughout. Further, the GI50 in assay [13], in [14], in assay [15], in assay [16], in [17] and in [18] was > 100 µM (inactive) throughout. The GI50 in [19] was > 100 µM (inactive).
In the case of `CCCC(CCC(N)=O)(CCC(N)=O)[N+](=O)[O-]`, the GI50 in [1], in [3], in [4], in assay [5], in [6] and in assay [20] was > 100 µM (inactive) in each case. Also, the GI50 in assay [7], in [8], in [9], in assay [10], in [11] and in [13] was > 100 µM (inactive) throughout. The GI50 in [14], in [15], in assay [17], in assay [18] and in assay [19] was > 100 µM (inactive) in each case.
For `Cc1cc2c(-c3ccccc3)cc(=O)[nH]c2cc1N`, the GI50 in [1], in [2], in assay [3], in assay [4], in [5] and in assay [6] was > 100 µM (inactive) each time. Moreover, the GI50 in assay [7], in assay [8], in assay [9], in assay [10], in assay [11] and in [12] was > 100 µM (inactive) each time. The GI50 in assay [13], in [14], in [15], in assay [16], in assay [18] and in assay [19] was > 100 µM (inactive) each time.
Take `COCc1nc2c(OC)c(-c3nc4ccc(N5CCN(C)CC5)nc4[nH]3)cc(OC)c2n1C`: the GI50 was 43.7 µM (inactive) in assay [1]; 35.7 µM (inactive) in assay [3]; 43.7 µM (inactive) in assay [4]; 8.59 µM (inactive) in assay [5]; 37.7 µM (inactive) in assay [6]; 17.4 µM (inactive) in [20]. Also, the GI50 in [7] is > 100 µM (inactive); in assay [8], 43.8 µM (inactive); in assay [9], 37.7 µM (inactive); in assay [10], 16.4 µM (inactive); in assay [11], 55 µM (inactive); in assay [12], 34 µM (inactive). For the same compound, the GI50 in assay [13] is 21.2 µM (inactive); in assay [14], 18.7 µM (inactive); in assay [15], 12.3 µM (inactive); in assay [16], 23.4 µM (inactive); in [17], 66.5 µM (inactive); in assay [18], 35.4 µM (inactive). In addition, in [19], the GI50 was 22 µM (inactive).
With `O=C(O)CCC(=O)c1ccc[nH]1`, the GI50 in assay [1], in [2], in assay [3], in assay [4], in assay [5] and in [6] was > 100 µM (inactive) in each case. In addition, the GI50 in assay [7], in assay [8], in assay [9], in assay [10], in assay [11] and in [12] was > 100 µM (inactive) in each case. The GI50 in assay [13], in assay [14], in [15], in assay [17], in assay [18] and in assay [19] was > 100 µM (inactive) in each case.
In the case of `O=C1c2ccccc2-c2nc3ccncc3n21`, the GI50 is > 100 µM (inactive) in [1]; > 100 µM (inactive) in assay [3]; > 100 µM (inactive) in [4]; > 100 µM (inactive) in assay [5]; 51.5 µM (inactive) in assay [6]; > 100 µM (inactive) in [20]. The GI50 in [7] is > 100 µM (inactive); in assay [8] it was > 100 µM (inactive); in assay [9] it was 31.1 µM (inactive); in [10], > 100 µM (inactive); in [11], > 100 µM (inactive); in assay [12], > 100 µM (inactive). For the same compound, the GI50 in assay [13], in assay [14], in assay [15], in assay [16], in assay [17] and in assay [18] was > 100 µM (inactive) throughout. For the same compound, the GI50 in [19] was > 100 µM (inactive).
`Cc1ccccc1OC(C)C(=O)NN1C(=O)CSC1c1ccccc1` (configuration not stated): the GI50 in [1] was > 100 µM (inactive); in [2], 34.3 µM (inactive); in assay [3] it was 42 µM (inactive); in assay [4], > 100 µM (inactive); in assay [5], > 100 µM (inactive); in assay [6] it was > 100 µM (inactive). The GI50 in assay [7] was 47.8 µM (inactive); in assay [8], > 100 µM (inactive); in assay [9], 53.2 µM (inactive); in [10], < 0.01 µM (active); in assay [11], 72.8 µM (inactive); in assay [12] it was > 100 µM (inactive). For the same compound, the GI50 in [13] was > 100 µM (inactive); in assay [14], 34.2 µM (inactive); in assay [15], > 100 µM (inactive); in assay [16], > 100 µM (inactive); in assay [17], > 100 µM (inactive); in [18], 67.6 µM (inactive). Besides, the GI50 in [19] was 63.2 µM (inactive).
As to `COc1ccc2c(c1)C(=O)[C@@](Nc1ccc(C=O)cc1)(OC)[C@@](OC)(c1ccc([N+](=O)[O-])cc1)O2`, the GI50 was > 10 µM (inactive) in assay [1]; > 10 µM (inactive) in assay [2]; 7.67 µM (inactive) in assay [3]; > 10 µM (inactive) in assay [4]; > 10 µM (inactive) in [5]; > 10 µM (inactive) in [6]. The GI50 in assay [20], in [8], in assay [9], in assay [10], in assay [11] and in assay [12] was > 10 µM (inactive) throughout. For the same compound, the GI50 was 8.53 µM (inactive) in assay [13]; > 10 µM (inactive) in [14]; > 10 µM (inactive) in assay [15]; > 10 µM (inactive) in [16]; > 10 µM (inactive) in assay [17]; > 10 µM (inactive) in assay [18]. Moreover, the GI50 in assay [19] was > 10 µM (inactive).
Turning to `Nc1c(C(=O)c2ccc(Cl)c(Cl)c2)[nH]c(NCc2ccccc2)c1C(=S)Nc1ccccc1`, the GI50 is 11.2 µM (inactive) in [1]; 15.3 µM (inactive) in assay [2]; 5.15 µM (inactive) in assay [3]; 15.8 µM (inactive) in assay [4]; 1.78 µM (inactive) in [5]; 15.3 µM (inactive) in [6]. Also, the GI50 in [20] was 19.1 µM (inactive); in assay [8], 11.8 µM (inactive); in [9] it was 3.64 µM (inactive); in assay [10], 3.31 µM (inactive); in [11] it was 2.08 µM (inactive); in assay [12], 3.81 µM (inactive). The GI50 in assay [13] was 13.8 µM (inactive); in assay [14] it was 2.65 µM (inactive); in assay [15] it was 2.68 µM (inactive); in assay [16], 4.63 µM (inactive); in assay [17], 17.2 µM (inactive); in [18], 18.5 µM (inactive). The GI50 in assay [19] is 6.7 µM (inactive).
As to `Cc1nc(-c2cc3ccccc3oc2=O)cs1`, the GI50 was 34 µM (inactive) in assay [1]; > 100 µM (inactive) in [3]; 15.9 µM (inactive) in [4]; > 100 µM (inactive) in [5]; > 100 µM (inactive) in [6]; > 100 µM (inactive) in assay [20]. Also, the GI50 is 19 µM (inactive) in [7]; 17.1 µM (inactive) in [8]; > 100 µM (inactive) in assay [9]; > 100 µM (inactive) in assay [10]; 78.5 µM (inactive) in assay [11]; > 100 µM (inactive) in [12]. Also, the GI50 is > 100 µM (inactive) in assay [13]; > 100 µM (inactive) in [14]; 70 µM (inactive) in assay [15]; > 100 µM (inactive) in assay [16]; > 100 µM (inactive) in assay [17]; 40.6 µM (inactive) in assay [18]. Further, in [19], the GI50 was > 100 µM (inactive).
On to `CC(=O)Nc1ccc(/N=N\c2c(O)c(S(=O)(=O)O)cc3cc(S(=O)(=O)O)ccc23)cc1`, for which the GI50 in assay [1], in assay [3], in assay [4], in [5], in assay [6] and in [7] was > 100 µM (inactive) throughout. Also, the GI50 in assay [8], in assay [9], in assay [11], in assay [12], in assay [13] and in [14] was > 100 µM (inactive) in each case. Besides, the GI50 in assay [16], in assay [17], in [18] and in [19] was > 100 µM (inactive) in each case.
